ChEMBL document CHEMBL1132621, “Synthesis, structure-activity relationships, and in vivo evaluations of substituted di-tert-butylphenols as a novel class of potent, selective, and orally active cyclooxygenase-2 inhibitors. 1. Thiazolone and oxazolone series” (J Med Chem, 1999)

Experiments:
[1] = molecular target: T1, Prostaglandin G/H synthase 2 (Mus musculus, UniProt Q05769)
T1 sequence (Q05769 whole entry): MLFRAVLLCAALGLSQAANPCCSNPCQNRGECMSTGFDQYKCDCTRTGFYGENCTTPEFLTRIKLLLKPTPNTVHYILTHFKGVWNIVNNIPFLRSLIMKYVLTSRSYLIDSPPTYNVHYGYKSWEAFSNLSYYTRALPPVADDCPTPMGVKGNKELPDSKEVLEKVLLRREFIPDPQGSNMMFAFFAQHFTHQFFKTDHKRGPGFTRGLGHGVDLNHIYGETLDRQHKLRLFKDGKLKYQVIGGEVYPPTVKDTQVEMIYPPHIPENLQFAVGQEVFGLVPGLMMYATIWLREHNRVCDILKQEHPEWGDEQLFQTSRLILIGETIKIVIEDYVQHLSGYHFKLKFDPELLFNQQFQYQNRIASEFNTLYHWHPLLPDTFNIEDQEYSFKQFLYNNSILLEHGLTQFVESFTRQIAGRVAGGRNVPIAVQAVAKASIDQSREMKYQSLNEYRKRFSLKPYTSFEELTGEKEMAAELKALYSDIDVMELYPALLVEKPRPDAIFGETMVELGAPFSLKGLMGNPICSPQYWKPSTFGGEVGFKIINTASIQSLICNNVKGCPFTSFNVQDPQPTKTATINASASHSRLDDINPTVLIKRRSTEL
Description: IC50 value was determined against Prostaglandin G/H synthase 2 of J7744A.1 cell lines.

[2] = molecular target: T2, Prostaglandin G/H synthase 1 (Homo sapiens, UniProt P23219); assay: (§1) IC50 against Prostaglandin G/H synthase 1 from human platelet rich plasma
[3] = molecular target: T3, Prostaglandin G/H synthase 2 (Homo sapiens, UniProt P35354); assay: IC50 against recombinant human Prostaglandin G/H synthase 2
T3 sequence (P35354 whole entry): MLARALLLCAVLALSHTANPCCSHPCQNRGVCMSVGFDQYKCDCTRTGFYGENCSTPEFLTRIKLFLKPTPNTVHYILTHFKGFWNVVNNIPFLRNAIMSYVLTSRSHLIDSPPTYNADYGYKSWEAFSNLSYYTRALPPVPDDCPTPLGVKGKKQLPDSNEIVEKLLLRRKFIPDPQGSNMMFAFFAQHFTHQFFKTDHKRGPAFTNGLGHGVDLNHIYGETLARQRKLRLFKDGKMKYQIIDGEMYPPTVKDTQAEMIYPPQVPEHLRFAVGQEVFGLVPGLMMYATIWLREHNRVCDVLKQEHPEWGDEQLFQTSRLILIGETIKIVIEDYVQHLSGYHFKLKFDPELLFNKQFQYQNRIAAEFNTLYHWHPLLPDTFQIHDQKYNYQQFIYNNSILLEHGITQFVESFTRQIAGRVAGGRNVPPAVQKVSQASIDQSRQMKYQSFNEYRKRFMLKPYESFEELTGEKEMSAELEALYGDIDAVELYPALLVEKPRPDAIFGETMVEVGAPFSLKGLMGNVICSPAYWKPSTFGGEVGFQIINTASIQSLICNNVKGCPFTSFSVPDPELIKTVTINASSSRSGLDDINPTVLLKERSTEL

[4] = molecular target: T4, Prostaglandin G/H synthase 1 (Ovis aries, UniProt P05979)
T4 sequence (P05979 whole entry): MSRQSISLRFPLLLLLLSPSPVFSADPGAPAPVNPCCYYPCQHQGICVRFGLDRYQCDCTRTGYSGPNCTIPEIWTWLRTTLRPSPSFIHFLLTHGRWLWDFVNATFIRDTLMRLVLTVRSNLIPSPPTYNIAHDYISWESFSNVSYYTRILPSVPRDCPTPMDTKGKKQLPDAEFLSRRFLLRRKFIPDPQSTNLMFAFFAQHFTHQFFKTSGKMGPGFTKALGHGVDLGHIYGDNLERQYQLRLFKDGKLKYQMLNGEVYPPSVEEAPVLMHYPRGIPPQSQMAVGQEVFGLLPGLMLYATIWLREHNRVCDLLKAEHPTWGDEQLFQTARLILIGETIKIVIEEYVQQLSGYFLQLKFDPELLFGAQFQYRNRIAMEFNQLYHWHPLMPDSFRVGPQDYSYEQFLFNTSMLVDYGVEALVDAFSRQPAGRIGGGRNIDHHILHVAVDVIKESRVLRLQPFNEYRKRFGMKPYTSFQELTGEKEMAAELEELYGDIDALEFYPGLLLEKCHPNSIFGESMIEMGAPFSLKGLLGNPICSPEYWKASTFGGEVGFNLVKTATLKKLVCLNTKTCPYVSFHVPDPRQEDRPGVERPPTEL
Description: IC50 against ovine Prostaglandin G/H synthase 1

[5] = molecular target: T2, Prostaglandin G/H synthase 1; assay: as §1; assay type: cell-free
[6] = molecular target: T2, Prostaglandin G/H synthase 1; assay: IC50 value was determined against Prostaglandin G/H synthase 1 of human platelet rich plasma; Not active
[7] = molecular target: T5, Prostaglandin G/H synthase 1 (Ovis aries) (UniProt P05979); assay: IC50 value against ovine Prostaglandin G/H synthase 1; Not active; conditions: concentration not given here
T5 sequence (whole entry): T4 sequence (P05979 whole entry)

Rattus norvegicus [8] = species: Rattus norvegicus; assay: ED50 measured by CFE assay; assay type: functional
Rattus norvegicus [9] = species: Rattus norvegicus; assay: Percentage of gastric damage was measured in rats.; assay type: functional, Stomach
[10] = molecular target: T5, Prostaglandin G/H synthase 1 (Ovis aries); assay: IC50 value against ovine Prostaglandin G/H synthase 1 at 10 uM
Mus musculus = species: Mus musculus; assay: ED50 measured by hyperalgesia assay; assay type: functional
Rattus norvegicus [11] = species: Rattus norvegicus; assay: Lesion frequency measured in rats; assay type: functional
Rattus norvegicus [12] = species: Rattus norvegicus; assay: Percentage inhibition of the prostaglandin synthesis was measured in rats.; assay type: functional
[13] = molecular target: T3, Prostaglandin G/H synthase 2; assay: IC50 value against recombinant human Prostaglandin G/H synthase 2; not active
[14] = molecular target: T5, Prostaglandin G/H synthase 1 (Ovis aries); assay: IC50 value against oCOX-1 at 10 uM
[15] = molecular target: T6, Prostaglandin G/H synthase 2 (Homo sapiens) (UniProt P35354); assay: IC50 value against recombinant human Prostaglandin G/H synthase 2 at 10 uM
T6 sequence (whole entry): T3 sequence (P35354 whole entry)

[16] = molecular target: T5, Prostaglandin G/H synthase 1 (Ovis aries); assay: IC50 value against oCOX-1 at 10 uM; Not active

T2 sequence (P23219 whole entry): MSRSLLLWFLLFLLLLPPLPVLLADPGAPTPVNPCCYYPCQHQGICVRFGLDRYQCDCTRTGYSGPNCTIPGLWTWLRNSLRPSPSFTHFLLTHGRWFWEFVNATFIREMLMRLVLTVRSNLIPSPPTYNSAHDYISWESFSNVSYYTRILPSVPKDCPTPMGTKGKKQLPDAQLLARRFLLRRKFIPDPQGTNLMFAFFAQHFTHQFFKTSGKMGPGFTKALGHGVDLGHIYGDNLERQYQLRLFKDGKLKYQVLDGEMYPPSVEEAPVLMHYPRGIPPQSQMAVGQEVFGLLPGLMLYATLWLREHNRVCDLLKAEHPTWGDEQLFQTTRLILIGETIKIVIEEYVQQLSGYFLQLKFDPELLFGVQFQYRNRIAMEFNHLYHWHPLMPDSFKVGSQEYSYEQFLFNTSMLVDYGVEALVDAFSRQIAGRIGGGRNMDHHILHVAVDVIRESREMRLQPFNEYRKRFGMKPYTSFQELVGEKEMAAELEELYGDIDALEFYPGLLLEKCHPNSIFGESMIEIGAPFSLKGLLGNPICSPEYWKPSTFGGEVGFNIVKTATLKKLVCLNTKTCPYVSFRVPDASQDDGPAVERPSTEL

Structure (SMILES) | IC50 [1] [nM] | IC50 [2] [nM] | IC50 [3] [nM] | IC50 [4] [nM] | IC50 [5] [nM] | also measured
CSC1=NC(=O)/C(=C/c2cc(C(C)(C)C)c(O)c(C(C)(C)C)c2)S1 | 1600 | 14400 | 1800 | 63000 |  | 
CC(C)(C)c1cc(/C=C2\NC(=S)NC2=O)cc(C(C)(C)C)c1O | 83 |  | 260 | 1300 | 990 | 
C=CCONC1=NC(=O)/C(=C/c2cc(C(C)(C)C)c(O)c(C(C)(C)C)c2)S1 | 1600 |  | 2700 |  |  | IC50 [6]: > 20000 nM; inhibition [7]: < 20%
CS(=O)(=O)c1ccc(-n2nc(C(F)(F)F)cc2-c2ccc(F)cc2)cc1 [SC-58125] |  |  |  |  |  | ED40 (Rattus norvegicus [8]): > 30 mg/kg; Gastric damage (Rattus norvegicus [9]): 0%; inhibition [10]: < 20%; ED40 (Mus musculus): 0.3 mg/kg; Lesion frequency (Rattus norvegicus [11]): 0%; Inhibition (Rattus norvegicus [12]): -1.58%
CSC1=NC(=O)/C(=C/c2cc(C(C)(C)C)c(O)c(C(C)(C)C)c2)O1 | 540 | 6400 |  | 1600 |  | IC50 [13]: Not Active
CC(C)c1cc(/C=C2\SC(N=C(N)N)=NC2=O)cc(C(C)C)c1O | 190 | 2700 | 1800 | 220 |  | 
CON(C)C1=NC(=O)/C(=C/c2cc(C(C)(C)C)c(O)c(C(C)(C)C)c2)S1 | 1600 | 5800 | 18000 | 51000 |  | ED40 (Rattus norvegicus [8]): 8.1 mg/kg; Damaged area (Rattus norvegicus [9]): 0.04%; ED40 (Mus musculus): 0.06 mg/kg; Lesion frequency (Rattus norvegicus [11]): 25%; Inhibition (Rattus norvegicus [12]): 52.2%
CONC1=NC(=O)/C(=C/c2cc(C(C)(C)C)c(O)c(C(C)(C)C)c2)O1 | 790 |  |  | 7300 | > 20000 | 
C=CCONC1=NC(=O)/C(=C/c2cc(C(C)(C)C)c(O)c(C(C)(C)C)c2)O1 | 1900 |  | 26000 | 4000 | > 20000 | 
CONC1=NC(=O)/C(=C/c2cc(C(C)C)c(O)c(C(C)C)c2)S1 | > 20000 | > 20000 | 570 | > 20000 |  | 
CC(C)(C)c1cc(/C=C2\SC(NC#N)=NC2=O)cc(C(C)(C)C)c1O | 230 | > 20000 | 55000 |  |  | inhibition [14]: < 20%
COc1ccc2c(c1)c(CC(=O)O)c(C)n2C(=O)c1ccc(Cl)cc1 [INDOMETHACIN] |  |  |  |  |  | ED40 (Rattus norvegicus [8]): 1.6 mg/kg; Gastric damage (Rattus norvegicus [9]): 0.18%; ED40 (Mus musculus): 0.6 mg/kg; Lesion frequency (Rattus norvegicus [11]): 75%; Inhibition (Rattus norvegicus [12]): 96.5%
CONC1=NC(=O)/C(=C/c2cc(C(C)(C)C)c(O)c(C(C)(C)C)c2)S1 [listing 1 of 2 here] | 170 |  | 1700 |  |  | IC50 [6]: > 20000 nM
CN1C(NC(=N)N)=NC(=O)/C1=C/c1cc(C(C)(C)C)c(O)c(C(C)(C)C)c1 | 750 |  | 81000 | 27 | 1500 | 
CCONC1=NC(=O)/C(=C/c2cc(C(C)(C)C)c(O)c(C(C)(C)C)c2)S1 | 270 |  | 3200 |  |  | IC50 [6]: > 20000 nM; inhibition [7]: < 20%
CC(C)(C)c1cc(/C=C2\OC(N=C(N)N)=NC2=O)cc(C(C)(C)C)c1O | 440 |  | 5100 | 1200 | 4400 | 
CC(C)(C)c1cc(/C=C2\SC(NO)=NC2=O)cc(C(C)(C)C)c1O | 170 | 9200 | 1500 | 52000 |  | 
CC(C)(C)c1cc(/C=C2\SC(=S)NC2=O)cc(C(C)(C)C)c1O | 390 |  | 1500 | 24000 | > 20000 | 
C/C(=C1/SC(N=C(N)N)=NC1=O)c1cc(C(C)(C)C)c(O)c(C(C)(C)C)c1 | 180 |  | 12000 | 460 | 590 | 
CONC1=NC(=O)/C(=C/c2cc(C(C)(C)C)c(O)c(C(C)(C)C)c2)S1 [listing 2 of 2 here] |  |  |  |  |  | inhibition [7]: < 20%
CCONC1=NC(=O)/C(=C/c2cc(C(C)(C)C)c(O)c(C(C)(C)C)c2)O1 | 650 |  | 79000 | 3500 | > 20000 | 
CC(C)(C)c1cc(/C=C2\OC(=O)NC2=O)cc(C(C)(C)C)c1O | 71 |  | 34000 | 95 | 1200 | 
CC(C)(C)c1cc(C=C2SC(=N)NC2=O)cc(C(C)(C)C)c1O [DARBUFELONE] | 69 | 600 |  |  |  | inhibition [15]: 41%; inhibition [16]: < 20%
CC(C)(C)c1cc(/C=C2\SC(N=C(N)N)=NC2=O)cc(C(C)(C)C)c1O | 430 | 250 | 21000 | 6.1 |  | 
CS(=O)(=O)Nc1ccc([N+](=O)[O-])cc1OC1CCCCC1 [NS-398] |  |  |  |  |  | ED40 (Rattus norvegicus [8]): 0.61 mg/kg; Gastric damage (Rattus norvegicus [9]): 0%; ED40 (Mus musculus): 7.4 mg/kg; Lesion frequency (Rattus norvegicus [11]): 0%; Inhibition (Rattus norvegicus [12]): 30.7%
CONC1=NC(=O)/C(=C/c2cc(C(C)(C)C)c(O)c(C(C)(C)C)c2)S1.C[N+](C)(C)CC[O-] |  |  |  |  |  | ED40 (Rattus norvegicus [8]): 15.7 mg/kg; Gastric damage (Rattus norvegicus [9]): 0%; ED40 (Mus musculus): 0.1 mg/kg; Lesion frequency (Rattus norvegicus [11]): 0%; Inhibition (Rattus norvegicus [12]): 32.8%
CC(C)(C)c1cc(/C=C2\SC(=O)NC2=O)cc(C(C)(C)C)c1O | 60 |  | 4700 | 42000 | 9300 | 
